Data on 5 compounds can be found in US11291205B2, “Microbiocidal picolinamide derivatives” (Syngenta Participations AG, priority 2017, dated 2022).

SMILES strings stand for the structures.

The test system of assay [1] is Mycosphaerella graminicola (Septoria tritici). The experiment in a line: Mycosphaerella graminicola (Septoria tritici) / liquid culture (Septoria blotch). As to conditions: Zymoseptoria tritici, 96 h, 200 ppm in the formulation, inhibition of growth determined photometrically 4 to 5 days after application, compared to untreated control, read-out: disease control. In kind it is cell-based. As to the method: Mycosphaerella graminicola (Septoria tritici)/Liquid Culture (Septoria Blotch) Conidia of the fungus from cryogenic storage are directly mixed into nutrient broth (PDB potato dextrose broth). After placing a (DMSO) solution of test compound into a microtiter plate (96-well format), the nutrient broth containing the fungal spores is added. The test plates are incubated at 24° C. and the inhibition of growth is determined photometrically 4 to 5 days after application.

Assay [2] concerns Monographella nivalis (Microdochium nivale). The experiment in a line: Monographella nivalis (Microdochium nivale) / liquid culture (foot rot cereals). In kind it is cell-based. The settings on record: 96 h, 200 ppm in the formulation, inhibition of growth determined photometrically 4-5 days after application, compared to untreated control, read-out: disease control. As to the method: Monographella nivalis (Microdochium nivale)/Liquid Culture (Foot Rot Cereals) Conidia of the fungus from cryogenic storage are directly mixed into nutrient broth (PDB potato dextrose broth). After placing a (DMSO) solution of test compound into a microtiter plate (96-well format), the nutrient broth containing the fungal spores is added. The test plates are incubated at 24° C. and the inhibition of growth is determined photometrically 4-5 days after application.

Assay [3] concerns Phaeosphaeria nodorum (Septoria nodorum). As to the kind of experiment: Phaeosphaeria nodorum (Septoria nodorum) / wheat / leaf disc preventative (glume blotch). The assay is classed as in vivo. The settings on record: 200 ppm in the formulation; wheat leaf segments cv. Kanzler; compared to untreated control; 5-7 days after application. Here is the method:
Phaeosphaeria nodorum (Septoria nodorum)/Wheat/Leaf Disc Preventative (Glume Blotch) Wheat leaf segments cv. Kanzler are placed on agar in a multiwell plate (24-well format) and sprayed with the formulated test compound diluted in water. The leaf disks are inoculated with a spore suspension of the fungus 2 days after application. The inoculated test leaf disks are incubated at 20° C. and 75% rh under a light regime of 12 h light/12 h darkness in a climate cabinet and the activity of a compound is assessed as percent disease control compared to untreated when an appropriate level of disease damage appears in untreated check leaf disks (5-7 days after application).

Assay [4] relates to Glomerella lagenarium (Colletotrichum lagenarium). The experiment in a line: Glomerella lagenarium (Colletotrichum lagenarium) / liquid culture (anthracnose). In kind it is cell-based. As to conditions: Colletotrichum orbiculare, 72 h, 200 ppm in the formulation, inhibition of growth measured photometrically 3 to 4 days after application, compared to untreated control, read-out: disease control. Here is the method:
Glomerella lagenarium (Colletotrichum lagenarium)/Liquid Culture (Anthracnose) Conidia of the fungus from cryogenic storage are directly mixed into nutrient broth (PDB potato dextrose broth). After placing a (DMSO) solution of test compound into a microtiter plate (96-well format), the nutrient broth containing the fungal spores is added. The test plates are incubated at 24° C. and the inhibition of growth is measured photometrically 3 to 4 days after application.

Assay [5] relates to Mycosphaerella arachidis (Cercospora arachidicola). As to the kind of experiment: Mycosphaerella arachidis (Cercospora arachidicola) / liquid culture (early leaf spot). The assay is classed as cell-based. As to conditions: 96 h, 200 ppm in the formulation, inhibition of growth determined photometrically 4-5 days after application, compared to untreated control, read-out: disease control. Here is the method:
Mycosphaerella arachidis (Cercospora arachidicola)/Liquid Culture (Early Leaf Spot) Conidia of the fungus from cryogenic storage are directly mixed into nutrient broth (PDB potato dextrose broth). After placing a (DMSO) solution of test compound into a microtiter plate (96-well format), the nutrient broth containing the fungal spores is added. The test plates are incubated at 24° C. and the inhibition of growth is determined photometrically 4-5 days after application.

The subject of assay [6] is Blumeria graminis f. Sp. tritici (Erysiphe graminis f. Sp. tritici). As to the kind of experiment: Blumeria graminis f. sp. tritici / wheat / leaf disc preventative (powdery mildew on wheat). In kind it is in vivo. The settings on record: 200 ppm in the formulation; wheat leaf segments cv. Kanzler; compared to untreated control; 6-8 days after application. The source says:
Blumeria graminis f. Sp. tritici (Erysiphe graminis f. Sp. tritici)/Wheat/Leaf Disc Preventative (Powdery Mildew on Wheat) Wheat leaf segments cv. Kanzler are placed on agar in a multiwell plate (24-well format) and sprayed with the test compound formulated with DMSO and Tween20 and diluted in water. The leaf disks are inoculated by shaking powdery mildew infected plants above the test plates 1 day after application.

Assay [7] deals with Botryotinia fuckeliana (Botrytis cinerea). As to the kind of experiment: Botryotinia fuckeliana (Botrytis cinerea) / liquid culture (gray mould). The assay is classed as cell-based. The settings on record: 72 h, 200 ppm in the formulation, inhibition of growth determined photometrically 3-4 days after application, compared to untreated control, read-out: disease control. Here is the method:
Botryotinia fuckeliana (Botrytis cinerea)/Liquid Culture (Gray Mould) Conidia of the fungus from cryogenic storage are directly mixed into nutrient broth (Vogels broth). After placing a (DMSO) solution of test compound into a microtiter plate (96-well format), the nutrient broth containing the fungal spores is added. The test plates are incubated at 24° C. and the inhibition of growth is determined photometrically 3-4 days after application.

Regarding `COc1ccnc(C(=O)N[C@@H](C)C(=O)OC2CCC2(c2ccccc2C)c2ccccc2C)c1O` (stereo partly drawn) [I.o.02, [2,2-bis(o-tolyl)cyclobutyl] (2S)-2-[(3-hydroxy-4-methoxy-pyridine-2-carbonyl)amino]propanoate], the inhibition of growth at 200 ppm in assay [1], in assay [2], in assay [4] and in assay [5] was not below 80% in each case. Also, the disease control entry in assay [3] was “at least 80%”.
With `COc1cccc(C2(c3cccc(OC)c3)CCC2OC(=O)[C@H](C)NC(=O)c2nccc(OC)c2O)c1` (some centres unmarked) [I.t.02], the inhibition of growth at 200 ppm in assay [1], in assay [2], in assay [4], in assay [5] and in assay [7] was not below 80% each time. Besides, the disease control result in assay [6] is “at least 80%”.
In the case of `COc1ccnc(C(=O)N[C@@H](C)C(=O)OC2CCC2(c2ccc(F)cc2)c2ccc(F)cc2)c1OC(C)=O` (stereo partly drawn) [I.u.14, [2,2-bis(4-fluorophenyl)cyclobutyl] (2S)-2-[(3-acetoxy-4-methoxy-pyridine-2-carbonyl)amino]propanoate], the inhibition of growth at 200 ppm in assay [1], in assay [2], in assay [4], in assay [5] and in assay [7] was not below 80% throughout.
On to `CCCc1ccc(C2CC2OC(=O)[C@H](C)NC(=O)c2nccc(OC)c2O)cc1` (stereo partly drawn) [I.aq.01, [2-(4-propylphenyl)cyclopropyl] (2S)-2-[(3-hydroxy-4-methoxy-pyridine-2-carbonyl)amino]propanoate], for which the inhibition of growth at 200 ppm in assay [1], in assay [2], in assay [4], in assay [5] and in assay [7] was not below 80% each time.
Take `COc1ccnc(C(=O)N[C@@H](C)C(=O)OC2CC2c2ccc(C(C)(C)C)cc2)c1O` (stereo partly drawn) [I.ap.01, [2-(4-tert-butylphenyl)cyclopropyl] (2S)-2-[(3-hydroxy-4-methoxy-pyridine-2-carbonyl)amino]propanoate]: the inhibition of growth at 200 ppm in assay [1], in assay [2], in assay [4], in assay [5] and in assay [7] was not below 80% throughout.
